Literature values, collected in patent EP1069913B1, “GELLING OPHTHALMIC COMPOSITIONS CONTAINING XANTHAN GUM” (Alcon Laboratories, Inc., priority 1998, dated 1999).

Conditions: Maleate: second pKa; Boric Acid: in presence of 3.75 to 4.4 wt.% mannitol

| SMILES | pKa |
| --- | --- |
| OB(O)O [Boric Acid] | 5.7-5.85 |
| CC(C)(C)NC[C@H](O)COc1nsnc1N1CCOCC1 [Timolol, reference compound] | 9.21 |
| O=C(O)/C=C\C(=O)O [Maleate] | 6.33 |
